# Reference: ChEMBL document CHEMBL5030545, “Discovery of clinical candidate Sivopixant (S-600918): Lead optimization of dioxotriazine derivatives as selective P2X3 receptor antagonists” (Bioorg Med Chem Lett, 2021)
# pIC50: −log10 of the molar value.
# Legend:
# [1] = Protein binding in rat plasma assessed as unbound fraction at 1 mg/kg administered as cassette dose; format: ADME, organism-based
# P2X purinoceptor 3 = biological target: T1, P2X purinoceptor 3 (Rattus norvegicus, UniProt P49654); test: Antagonist activity at rat P2X3 receptor
# T1 sequence (P49654 whole entry): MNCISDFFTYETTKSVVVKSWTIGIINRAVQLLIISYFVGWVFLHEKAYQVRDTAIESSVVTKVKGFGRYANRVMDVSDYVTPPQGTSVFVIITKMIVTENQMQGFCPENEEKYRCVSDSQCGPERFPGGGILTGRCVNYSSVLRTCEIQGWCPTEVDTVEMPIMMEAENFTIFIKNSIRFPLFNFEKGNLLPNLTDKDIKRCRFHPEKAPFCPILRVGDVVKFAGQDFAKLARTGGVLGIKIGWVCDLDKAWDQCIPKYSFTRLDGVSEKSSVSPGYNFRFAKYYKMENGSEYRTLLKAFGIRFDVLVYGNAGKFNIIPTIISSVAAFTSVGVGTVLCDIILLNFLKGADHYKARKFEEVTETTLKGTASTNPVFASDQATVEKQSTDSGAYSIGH
# [2] = Solubility of the compound in pH 1.2 JP1 fluid; format: physicochemical
# Cytochrome P450 1A2 = biological target: T2, Cytochrome P450 1A2 (Homo sapiens, UniProt P05177); test: Inhibition of CYP1A2 (unknown origin); format: ADME
# T2 sequence (P05177 whole entry): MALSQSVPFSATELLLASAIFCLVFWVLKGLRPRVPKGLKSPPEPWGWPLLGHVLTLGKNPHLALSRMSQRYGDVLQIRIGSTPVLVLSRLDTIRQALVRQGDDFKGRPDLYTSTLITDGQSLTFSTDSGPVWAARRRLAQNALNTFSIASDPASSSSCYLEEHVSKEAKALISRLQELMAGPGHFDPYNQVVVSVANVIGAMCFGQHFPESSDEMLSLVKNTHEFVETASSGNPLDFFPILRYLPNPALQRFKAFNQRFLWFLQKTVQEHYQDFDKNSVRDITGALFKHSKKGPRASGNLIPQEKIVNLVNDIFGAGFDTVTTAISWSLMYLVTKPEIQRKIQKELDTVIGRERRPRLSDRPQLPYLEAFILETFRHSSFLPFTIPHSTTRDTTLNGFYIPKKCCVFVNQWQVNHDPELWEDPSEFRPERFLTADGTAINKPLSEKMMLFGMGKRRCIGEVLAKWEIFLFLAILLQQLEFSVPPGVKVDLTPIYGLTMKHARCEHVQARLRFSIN
# Cytochrome P450 2C9 = Cytochrome P450 2C9 (Homo sapiens, UniProt P11712); test: Inhibition of CYP2C9 (unknown origin); format: ADME
# [3] = AUC in rat at 3 mg/kg, po; format: ADME, organism-based; parameters: dose 3 mg/kg; settings: in vivo
# [4] = Oral bioavailability in rat at 3 mg/kg; format: ADME, organism-based; settings: in vivo
# [5] = Protein binding in rat plasma assessed as unbound fraction at 3 mg/kg, iv; format: ADME, organism-based
# Rattus norvegicus = test: Analgesic activity in po dosed rat model of partial sciatic nerve ligation-induced neuropathic pain; format: functional
# [6] = Ratio of plasma concentration in rat measured after 3 hrs to IC50 of P2X3 (unknown origin); format: ADME; settings: in vivo
# Chain of Cytochrome P450 2C9 (P11712 whole entry): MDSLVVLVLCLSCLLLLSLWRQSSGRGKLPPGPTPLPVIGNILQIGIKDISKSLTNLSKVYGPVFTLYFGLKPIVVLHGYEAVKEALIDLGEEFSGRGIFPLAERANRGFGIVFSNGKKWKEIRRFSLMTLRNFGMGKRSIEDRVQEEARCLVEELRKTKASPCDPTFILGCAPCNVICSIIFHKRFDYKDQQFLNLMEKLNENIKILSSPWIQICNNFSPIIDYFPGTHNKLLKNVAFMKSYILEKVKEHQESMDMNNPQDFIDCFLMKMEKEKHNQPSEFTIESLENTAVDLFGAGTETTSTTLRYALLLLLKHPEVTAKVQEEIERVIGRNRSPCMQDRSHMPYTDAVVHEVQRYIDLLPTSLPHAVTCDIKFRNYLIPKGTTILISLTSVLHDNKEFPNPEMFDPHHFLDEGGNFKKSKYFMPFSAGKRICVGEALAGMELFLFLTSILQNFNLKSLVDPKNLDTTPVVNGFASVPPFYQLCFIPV
smiles,measurement,setting,value
C[C@@H](Cn1c(=O)[nH]/c(=N\c2ccc(Oc3ccccn3)cc2)n(Cc2ccc(Cl)cc2)c1=O)C(=O)O,fraction unbound,[1],0.01
same,pIC50,P2X purinoceptor 3,8.40
same,solubility,[2],31.5 µg/mL
same,pIC50,Cytochrome P450 1A2,< 4.70
same,pIC50,Cytochrome P450 2C9,< 4.70
same,AUC,[3],14000 ng·h/mL
same,bioavailability,[4],76.8%
same,fraction unbound,[5],0.01
same,ED50,Rattus norvegicus,0.4 mg/kg
same,Ratio,[6],156.9
